For one compound, IC50 results are on record in patent US20230144838A1, “THERANOSTIC SYSTEM FOR DIRECTED DIFFUSION OF THERAPEUTIC AND IMAGING AGENTS TO CANCER CELLS” (UNIVERSITAT POLITÈCNICA DE VALÈNCIA, priority 2019, published 2023).

This assay relates to LNCaP (with membrane receptors FOLH1). Description: In vitro cytotoxic activity by MTT assay, LNCaP cells. Type of assay: cell-based. Conditions: LNCaP human prostate adenocarcinoma cells, 72 hours, DTX equivalent concentration, n = 3, read-out: IC50 (mean ± SD).

Procedure: The in vitro cytotoxic activity of the theranostic system was determined by the 3-[4,5-dimethylthiazol-2-yl]-2,5-diphenyltetrazolium (MTT) bromide test. In these assays, the proliferation of living cells is determined via mitochondrial dehydrogenase activity: viable mitochondria reduce MTT by generating MTT-formazan crystals that are quantifiable by visible spectrophotometry.
Two types of human prostate adenocarcinoma cell lines were used for these assays: LNCaP (with membrane receptors FOLH1, PROTEIN DATA BANK ID FOLH1: 1Z8L) and PC3 (without FOLH1 receptors).
The cells are seeded in 96-well plates at a rate of 10,000 cells/well in both cases, 24 h before incorporating the nanoparticles. Aliquots of 3 mg ml-^1 of DTX in DMSO are prepared and kept at −20° C. When required, an aliquot is thawed, and working aliquots (100 μg/ml by dilution in enriched RPMI medium) are prepared. Alternatively, aliquots of 100 μg/mL DTX are prepared in enriched RPMI medium and kept at −20° C. until required. […]
At the end of the incubation period, 10 μl (5 mg/ml) of the MTT solution are added to each well and 4 hours later the formazan crystals are dissolved with isopropanol, and the absorbance at 570 nm is measured. The percentage of cell survival relative to untreated cells is determined and the values of IC50 from the curve DTX concentration-(%) live cells are calculated.

By IC50 is commonly meant the concentration that inhibits the measured activity by half. Consider `CC(=O)O[C@@]12CO[C@@H]1C[C@H](O)[C@@]1(C)C(=O)[C@H](O)C3=C(C)[C@@H](OC(=O)[C@H](O)[C@@H](NC(=O)OC(C)(C)C)c4ccccc4)C[C@@](O)([C@@H](OC(=O)c4ccccc4)[C@H]21)C3(C)C` [DTX, docetaxel], for which the IC50 was 0.8 ± 0.2 µg/mL.
